One assay deals with EL4 cells. The assay can be described thus: Cytotoxic T-cell activity, four hour chromium release assay. The class given is cell-based, mouse. The note with it: for target cell lysis: at about 10 μg/ml, cytotoxic T-cells, E:T 20:1, four hour incubation; for chromium release from target cells: at concentrations higher than about 10 μg/ml, compared with spontaneous release without compound. The text has this:
Cytotoxic T-cell Activity: To assay the effect of metalloprotoporphyrins on cytotoxic T-cell activity, CBA to B6 effectors were generated following a five day culture of 3×10^6 CBA spleen cells with 3×10^6 mitomycin-treated B6 spleen cells in wells of a 24-well plate (Nunclone, Delta, Nunc, Denmark) in R-10 medium. Effector cells were then harvested and washed. (H2^b), a mouse lymphoma induced in C57BL/6N was used as target cells. EL4 cells were routinely subcultured once every three days. They were then collected, washed, and labeled with 0.1 mCi of sodium chromate-51 in 200 μl for one hour at 37° C. Effector (E) and target (t) cells were added into V-shaped tissue culture plates (Nunc, Denmark) at E:T of 20:1. Metalloprotoporphyrins were diluted to the working concentrations with PBS and added at the beginning of the four hour incubation period. For the determination of maximal release, 1% triton X-100 was added to separate wells. Plates were centrifuged for three minutes to increase cellular contact before the four hour incubation period. After incubation 75 μl supernatant from each well was collected and the amount of^51Cr released was counted using a TopCount scintillation counter. The degree of cell lysis was calculated using the formula below: […]

Assay [1] deals with C57B1/6 heart allografts in CBA recipients. The assay can be described thus: Heterotopic heart transplantation, allograft survival. Format: in vivo, mouse. The note with it: control 7.8±1.1. The protocol:
FIG. 2 is a graph showing the prolongation of heart allograft survival following metalloprotoporphyrin therapy. CBA recipients of C57B1/6 heart allografts were either untreated or treated as follows: Zn-protoporphyrin group (n=4); Zn-protoporphyrin was administered at 10 mg/kg/day on day −1 before transplantation and on days 1–9 post transplantation. Co-protoporphyrin group (n=4); Co-protoporphyrin was administered at 20 mg/kg/day on days 0–5 post-transplantation; Zn-protoporphyrin pretreatment group (n=3); heart donors were treated one day before transplantation with 50 mg/kg Zn-protoporphyrin.
Heterotopic Heart Transplantation: Abdominal heterotopic heart transplantation was performed as previously described by Ono and Lindsey, J. Thorac. Cardiovasc. Surg. 7:225–229 (1969) using […] donors and CBA recipients. Metalloporphyrin was administered intraperitoneally using various protocols. Heart allograft survival was monitored daily by direct palpation, and rejection was defined as termination of palpable cardiac contractility. Results are expressed as percentage graft survival at a given postoperative period. Statistical analysis was performed with the Mann-Whitney test.

The test system of assay [2] is fatty liver isografts from obese Zucker donors in lean Zucker recipients. The assay is described as follows: Syngeneic orthotopic liver transplant (OLT) model, survival and sGOT. The class given is in vivo, rat. On the procedure:
Syngeneic Orthotopic Liver Transplant (OLT) model: Syngeneic liver transplants were performed using fatty livers that were harvested from obese Zucker rats and stored for 4 hours at 4° C. in University of Wisconsin (UW) solution before being transplanted into lean Zucker recipients. OLTs were performed with revascularization without hepatic artery reconstruction. There were 2 treatment groups. In the first group, obese Zucker rats (n=10) received CoPP (5 mg/kg intraperitoneally) 24 hours before the procurement. Group 2 donors (n=11) were treated with Ad-HO-1 (2.4×10^9 pfu intravenously) 24 hours before harvest. OLT recipients were followed for survival and serum glutamic-oxaloacetic trans-aminase (sGOT) levels. Separate groups of rats (n=2/group) were sacrificed at 1, 7, 14, and 100 days after OLT, and liver samples were collected for H&E/immunohistology staining and Western blot analysis.

Assay [3] deals with liver isografts. The assay is described as follows: OLT liver histology, modified Suzuki's criteria. The class given is in vivo, rat. The note with it: day 1 after transplant; graded 0 to 4; control 3.33±0.58. From the text:
Histology and immunohistochemistry: Liver specimens were fixed in a 10% buffered formalin solution and embedded in paraffin. Sections were made at 4 μm and stained with H&E. The previously published Suzuki's criteria (Suzuki et al., Transplantation 55:1265–1272 (1993)), […] were modified to evaluate the histologic severity of I/R injury in the OLT model. In this classification sinusoidal congestion, hepatocyte necrosis, and ballooning degeneration are graded from 0 to 4. No necrosis, congestion or centrilobular ballooning is given a score of 0, whereas severe congestion and ballooning degeneration as well as greater than 60% lobular necrosis is given a value of 4.

Assay [4] deals with liver isografts. The assay is described as follows: OLT immunohistochemistry for mononuclear cell (MNC) infiltration. Format: in vivo, rat. On the procedure: OLTs were examined serially by immunohistochemistry for mononuclear cell (MNC) infiltration. Briefly, liver tissue was embedded in Tissue Tek OCT compound (Miles Inc., Elkhart, Ind., USA), snap frozen in liquid nitrogen, and stored at −70° C. Cryostat sections (5 μm) were fixed in acetone, and then endogenous peroxidase activity was inhibited with 0.3% H2O2 in PBS. Normal heat-inactivated donkey serum (10%) was used for blocking. Appropriate primary mouse Ab against rat T cells (R73) and monocytes/macrophages (ED1) (Harlan Bioproducts for Science, Indianapolis, Ind., USA) were added at optimal dilutions. Bound primary Ab was detected using biotinylated donkey anti-mouse IgG and streptavidin peroxidase-conjugated complexes (DAKO Corp., Carpinteria, Calif., USA). The control sections were performed by replacing the primary Ab with either dilution buffer or normal mouse serum. The peroxidase reaction was developed with 3,3-diaminobenzidine tetrahydrochloride (Sigma Chemical Co., St. Louis, Mo., USA). The sections were evaluated blindly by counting the labeled cells in triplicates in 10 high-power fields.

Assay [5] relates to HO-1. The assay is described as follows: Western analysis of HO-1 expression in the OLT model. The class given is in vivo, rat. The note with it: day 1, 7, 14 and 100 after transplant; densitometer; untreated 0.09–0.85 AU. On the procedure: (§1) Western blots: Protein was extracted from liver tissue samples with PBSTDS buffer (50 mM Tris, 150 mM NaCl, 0.1% SDS, 1% sodium deoxycholate, and 1% Triton X-100, pH 7.2). Proteins (30 μg/sample) in SDS-loading buffer (50 mM Tris, pH 7.6, 10% glycerol, 1% SDS) were subjected to 12% SDS-PAGE and transferred to nitrocellulose membrane (Bio-Rad Laboratories Inc., Hercules, Calif., USA). The gel was then stained with Coomassie blue to document equal protein loading. The membrane was blocked with 3% dry milk and 0.1% Tween-20 (Amersham, Arlington Heights, Ill., USA) in PBS and incubated with rabbit anti-rat HO-1 polyclonal Ab (Sangstat Corp., San Francisco, Calif., USA). The filters were washed and then incubated with horseradish peroxidase donkey anti-rabbit Ab (Amersham Life Sciences, Arlington Heights, Ill., USA). Relative quantities of HO-1 protein were determined using a densitometer (Kodak Digital Science 1D Analysis Software, Rochester, N.Y., USA) and results were expressed in absorbance units (AU).

The subject of assay [6] is fatty livers from obese Zucker rats. The assay is described as follows: Ex vivo steatotic rat liver cold ischemia model followed by reperfusion. As to conditions: for bile production / portal blood flow: 2-hour reperfusion after 6 hours cold ischemia; for bile production / portal blood flow / I/R-induced hepatocyte injury measured by sGOT release: compared with untreated controls; for I/R-induced hepatocyte injury measured by sGOT release: 2-hour reperfusion. The class given is in vivo. On the procedure:
Animals, metalloporphyrins, and adenovirus constructs are described in Example 3. Ex vivo cold ischemia model: Genetically obese Zucker rats underwent ether anesthesia and systemic heparinization. […] Control livers from untreated obese Zucker rats were stored for 6 hours at 4° C. in UW solution (n=6). There were 4 treatment groups. Group 1 animals received CoPP, the HO-1 inducer (5 mg/kg intraperitoneally) 24 hours before liver harvest (n=6). Group 2 rats were infused with Ad-HO-1 or Ad-β Gal (2.4×10^9 plaque-forming units (pfu) […]) 24 to 48 hours before the procurement (n=4–10). Group 3 donors were treated with Ad-HO-1 (2.4×10^9 pfu intravenously) at day-2, followed 1 day later by infusion of ZnPP (20 mg/kg intraperitoneally), the HO-1 inhibitor (n=4). Group 4 rats received ZnPP alone (20 mg/kg intraperitoneally) at 24 hours before harvest (n=4). All livers were procured at day 0, stored for 6 hours at 4° C. in UW solution, and then perfused on an isolated perfusion rat liver apparatus, as described. The Zucker livers were perfused ex vivo for 2 hours while temperature, pH, and inflow pressure were kept constant. Portal vein blood flow and pressure were recorded every 15 minutes, whereas bile output was monitored every 30 minutes. Portal vein blood flow was adjusted to maintain portal pressures of 13 to 18 cm H2O. Blood was collected at 30-minute intervals and serum glutamic-oxaloacetic trans-aminase (sGOT) levels were measured using an autoanalyzer from ANTECH Diagnostics (Irvine, Calif., USA). Following 2 hours of perfusion, a portion of the liver was snap-frozen for mRNA extraction and Western blot analysis of HO-1 expression; the remaining tissue samples were fixed in formalin for hematoxylin and eosin (H&E) staining.

Assay [7] shares this test system. The assay can be described thus: Liver histology in the ex vivo cold ischemia model, Banff's criteria. Also on record: species or system rat. The note with it: after 2 hours perfusion; graded 1 to 4; untreated 3.0±0.63. From the text: Histology and immunohistochemistry: Liver specimens were fixed in a 10% buffered formalin solution and embedded in paraffin. Sections were made at 4 μm and stained with H&E. The histologic severity of I/R injury in the ex vivo perfusion model was graded using International Banff Criteria. Using these criteria, lobular disarray and ballooning changes are graded from 1 to 4, where no change is given a score of 1 and severe disarray or ballooning changes is given a score of 4.

The subject of assay [8] is HO-1. The assay can be described thus: Western analysis of HO-1 expression in the ex vivo I/R injury model. The arrangement: species or system rat. As to conditions: at completion of 2-hour perfusion period; densitometer; untreated 0.11 AU. The protocol:
as §1
Western blots were performed as described in Example 3.

Assay [9] deals with HO-1. The assay is described as follows: Rat sandwich ELISA of HO-1 protein in liver. As to conditions: 5 mg/kg intraperitoneally. Format: in vivo. On the procedure: To test that stress-induced upregulation of HO-1 reduces I/R insult in steatotic rat livers, we have chosen 2 distinct HO-1-inducing approaches. First, donor rats were pretreated with CoPP (5 mg/kg intraperitoneally), a regimen that increases HO-1 protein levels in rat livers by 250% in a rat sandwich ELISA. Second, because infusion of CoPP in high doses may modulate other heme enzymes such as nitric oxide synthase (NOS) and guanylate cyclase, we have also used Ad-based gene delivery to provide “proof of principle” and to selectively upregulate HO-1 expression in prospective liver donors. Western blot analysis confirmed increased HO-1 protein expression in the ex vivo I/R model using Ad-HO-1-transduced rat steatotic livers.
A general note: An ELISA detects its analyte on a solid surface through an enzyme-linked reagent.

Where [10] appears, read: recipients treated i.p., Zn 10 mg/kg/day day -1 and days 1-9, Co 20 mg/kg/day days 0-5.

“Also recorded” adds a separate entry of the source.

As to `C=CC1=C(C)c2cc3[n-]c(cc4nc(cc5[n-]c(cc1n2)c(C)c5CCC(=O)[O-])C(CCC(=O)[O-])=C4C)c(C)c3C=C.[Co+2].[H+].[H+]` [CoPP, cobalt-protoporphyrin], in the assay on EL4 cells, the target cell lysis turned out to be 0% and the “chromium release from target cells” value is “lower than the spontaneous release”. In assay [1] (setting [10]), the “heart allograft survival (mean survival time)” value (from here on “heart allograft survival”) was 10.5±0.6 days. The sGOT levels in [2] (day 1 post transplant, control 2695) was 1838 IU/L. For the same compound, in assay [2] (day 7 post transplant, control 1570), the sGOT levels was 477 IU/L. Moreover, the sGOT levels in [2] (day 14 post transplant, control 460) was 198 IU/L. Moreover, in [2] (lean Zucker rats engrafted with livers from treated obese Zucker donors), the “recipients still alive at well over 100 days after transplant” value is given as 8 out of 10. For the same compound, the Suzuki score in the assay on liver isografts [3] came out at 1.33±0.70. For the same compound, in the assay on liver isografts [4] (day 1, labeled cells counted in 10 high-power fields, control 9±3), the “intragraft T cells” value is reported as 2±1. Moreover, in the assay on liver isografts [4] (day 1, labeled cells counted in 10 high-power fields, control 136±31), the intragraft monocytes/macrophages is listed as 71±12. Further, the “hepatocyte architecture and MNC infiltrate of long-term liver grafts” value with liver isografts [4] (grafts harvested at day 100) is “good preservation of hepatocyte architecture and only mild MNC infiltrate”. Besides, the HO-1 expression in the assay on HO-1 [5] is reported as 1.21–2.14 AU. Moreover, in [6], the bile production entry is “significantly increased; also recorded: significantly higher”, the portal blood flow entry is recorded as “significantly improved” and the “I/R-induced hepatocyte injury measured by sGOT release” value is “markedly reduced”. In assay [6] (at 60 minutes of reperfusion, untreated controls 102±8.23), this compound showed a sGOT concentrations of 53.3±8.23 IU/L. Also, the “Banff's score” value in [7] came out at 1.21±0.39. Also, the HO-1 expression with HO-1 [8] was found to be 2.46 AU. Besides, the “increase of HO-1 protein levels in rat livers” value in the assay on HO-1 [9] is recorded as 250%.
As to `C=CC1=C(C)c2cc3[n-]c(cc4nc(cc5[n-]c(cc1n2)c(C)c5C=C)C(C)=C4CCC(=O)O)c(CCC(=O)O)c3C.[Zn+2]` [ZnPP, Zinc-protoporphyrin], in the assay with EL4 cells, the target cell lysis worked out at 0% and the “chromium release from target cells” value is recorded as “lower than the spontaneous release”. Moreover, the “heart allograft survival” value in assay [1] (heart donors pre-treated one day before transplantation (50 mg/kg)) is recorded as 10.3±1.5 days. Moreover, in assay [1] (setting [10]), the “heart allograft survival” value turned out to be 12.0±2.4 days. Besides, in assay [6], the bile production result was “diminished”, the portal blood flow result is “diminished” and the “I/R-induced hepatocyte injury measured by sGOT release” value is “augmented hepatocyte injury comparable with otherwise untreated fatty controls”. Besides, the “Banff's score” value in assay [7] was 2.86±0.12. In the assay on HO-1 [8], this compound displayed an HO-1 expression of 0.12 AU.

(Values after patent US7151090B2, “Methods for enhancing graft survival by modulating heme oxygenase activity” (priority 1998, dated 2006).)
